This is an account of results in US7713969B2, “Compositions and methods for treatment of cancer” (ArQule, Inc., priority 2005, dated 2010).

The term IC50 denotes the midpoint of a concentration-inhibition curve.

The subject of one assay is MDA-MB-231. As to the kind of experiment: Cell viability MTS assay. The conditions noted are these: Homo sapiens, MDA-MB-231, 72 hours with compound. In kind it is cell-based, human. As for the experimental part: (§1) Cell viability was determined by measuring the activity of dehydrogenase enzymes in metabolically active cells using a tetrazolium compound, MTS. The assay was performed as described in Promega Technical Bulletin No. 169 (CellTiter 96 Aqueous Non-Radioactive Cell Proliferation Assay). Thirteen human cancer cell lines were assayed (see, e.g., Table 1). Cells were maintained at 37° C., 5% CO2. Adherent cells were maintained DMEM media (4.5 g/L glucose) supplemented with 15% heat-inactivated FBS, 10 mM L-glutamine, and 10 mM Hepes pH 7.5. Suspension cells were maintained in RPMI 1640 media, supplemented with 10% heat-inactivated FBS and 10 mM Hepes pH 7.5. Briefly, cells were seeded in 96-well plates as set forth in Table 1 and incubated for 16-24 hours. Candidate compounds were serially diluted in DMSO, further diluted in cell culture media, and then added to cells (final DMSO concentration of 0.33%). Cells were incubated in the presence of candidate compound for 72 hours. MTS stock solution (MTS 2 gm/L, PMS […] in PBS) was added to the cells (final concentration MTS […] and PMS 7.67 mg/L) and incubated for 4 hours. SDS was added to a final concentration of 1.4% and absorbance at 490 nm was measured within two hours using a platereader. The IC50 was defined as the concentration of compound that results in a 50% reduction in the number of viable cells as compwered to control wells treated with DMSO only (0.33%) and was calculated using non-linear regression analyswas. IC50 values were given in Table 2 for the compounds listed.

Another assay relates to HT29. The assay can be described thus: Cell viability MTS assay. In kind it is cell-based, human. As for the experimental part:
as §1

Where [1] appears, read: Homo sapiens, HT-29, 72 hours with compound.

A value given as a limit tells only on which side of the number the result lay.

As for `O=C1NC(=O)[C@@H](c2cn3c4c(cccc24)CCC3)[C@@H]1c1ccc(F)cc1` (racemic) [Example 70, (±)-Trans-3-(5,6-dihydro-4H-pyrrolo[3,2,1-ij]quinolin-1-yl)-4-(4-fluorophenyl)pyrrolidine-2,5-dione], the IC50 in the assay on MDA-MB-231 turned out to be 49.2 µM.
Turning to `O=C1NC(=O)[C@@H](c2cn3c4c(cccc24)CCC3)[C@@H]1c1ccccc1F` (racemic) [Example 46, (±)-Trans-3-(5,6-dihydro-4H-pyrrolo[3,2,1-ij]quinolin-1yl)-4-(2-fluorophenyl)pyrrolidine-2,5-dione], the results for the concentration for half-maximal inhibition (IC50) in the assay with MDA-MB-231 and with HT29 (setting [1]) were > 100 µM and 4.76 µM, respectively.
On to `O=C1NC(=O)[C@@H](c2cn3c4c(cccc24)CCC3)[C@@H]1c1c[nH]c2ccc(-c3cccc4ccccc34)cc12` (racemic) [Example 37, (±)-Trans-3-(5,6-dihydro-4H-pyrrolo[3,2,1-ij]quinolin-1yl)-4-(5-(1-naphthyl)-1H-indol-3-yl)pyrrolidine-2,5-dione], for which the IC50 was determined as 43.4 µM in the assay on MDA-MB-231 and 37.4 µM in the assay on HT29 (setting [1]).
The matching figures for `O=C1NC(=O)C(c2cn3c4c(cccc24)CCC3)=C1c1cccs1` [Example 7, 3-(5,6-Dihydro-4H-pyrrolo[3,2,1-ij]quinolin-1-yl)-4-thiophen-2-yl-pyrrole-2,5-dione]: > 100 µM and > 100 µM.
The matching figures for `O=C1NC(=O)C(c2cn3c4c(cccc24)CCC3)=C1c1ccccc1C(F)(F)F` [Example 6, 3-(5,6-dihydro-4H-pyrrolo[3,2,1-ij]quinolin-1-yl)-4(2-trifluoromethyl-phenyl)-pyrrole-2,5-dione]: 61.2 µM and 62.7 µM.
The matching figures for `O=C1NC(=O)C(c2cn3c4c(cccc24)CCC3)=C1c1cccc(Cl)c1` [Example 15, 3-(5,6-Dihydro-4H-pyrrolo[3,2,1-ij]quinolin-1-yl)-4-(3-chloro-phenyl)-pyrrole-2,5-dione]: 43.6 µM and 75.8 µM.
For the compound `O=C1NC(=O)C(c2cn3c4c(cccc24)CCC3)=C1c1cc2ccccc2s1` [Example 13, 3-Benzo[b]thiophen-2-yl-4-(5,6-dihydro-4H-pyrrolo[3,2,1-ij]quinolin-1-yl)-pyrrole-2,5-dione], the IC50 with MDA-MB-231 is 78.8 µM; with HT29 (setting [1]) it was > 100 µM.
For the compound `CN(C)CC(=O)OCN1C(=O)[C@@H](c2c[nH]c3ccccc23)[C@H](c2cn3c4c(cccc24)CCC3)C1=O` (racemic) [Example 59, (±)-trans-2-dimethylamino-acetic acid-3-(5,6-dihydro-4H-pyrrolo[3,2,1-ij]quinolin-1-yl)-4-(1H-indol-3-yl)-2,5-dioxo-pyrrolidin-1-ylmethyl ester], the IC50 in the assay on MDA-MB-231 came out at 4.47 µM; in the assay on HT29 (setting [1]) it was 3.74 µM.
`O=C1NC(=O)C(c2cn3c4c(cccc24)CCC3)=C1c1ccccc1Cl` [Example 16, 3-(5,6-Dihydro-4H-pyrrolo[3,2,1-ij]quinolin-1-yl)-4-(2-chloro-phenyl)-pyrrole-2,5-dione]: the figures for the half-inhibitory concentration (IC50) in the assay on MDA-MB-231 and with HT29 (setting [1]) were 21.5 µM and 40.9 µM, respectively.
Consider `O=C1[C@@H](c2c[nH]c3ccccc23)[C@H](c2cn3c4c(cccc24)CCC3)C(=O)N1COP(=O)(OCc1ccccc1)OCc1ccccc1` (relative stereo) [phosphoric acid dibenzyl ester trans-3-(5,6-dihydro-4H-pyrrolo[3,2,1-ij]quinolin-1-yl)-4-(1H-indol-3-yl)-2,5-dioxo-pyrrolidin-1-ylmethyl ester], for which the figures for the half-inhibitory concentration (IC50) with MDA-MB-231 and with HT29 (setting [1]) were > 100 µM and 22.6 µM, respectively.
The matching figures for `O=C1NC(=O)[C@@H](c2cn3c4c(cccc24)CCC3)[C@@H]1c1c(Cl)cccc1Cl` (racemic) [Example 41, (±)-Trans-3-(5,6-dihydro-4H-pyrrolo[3,2,1-ij]quinolin-1yl)-4-(2,6-dichlorophenyl)pyrrolidine-2,5-dione]: 7.63 µM and 4.65 µM.
Consider “3-(5,6-dihydro-4H-pyrrolo[3,2,1-ij]quinolin-1-yl)-4-(4-fluorophenyl)-1H-pyrrole-2,5-dione [Example 67]”, for which the IC50 in the assay with HT29 (72 hours with compound) amounted to 53.1 µM.
Consider `O=C1NC(=O)C(c2cn3c4c(cccc24)CCC3)=C1c1cccc(Oc2ccccc2)c1` [Example 14, 3-(5,6-Dihydro-4H-pyrrolo[3,2,1-ij]quinolin-1-yl)-4-(3-phenoxy-phenyl)-pyrrole-2,5-dione], for which the results for the half-maximal inhibitory concentration (IC50) with MDA-MB-231 and in the assay with HT29 (setting [1]) were 98.2 µM and 71.6 µM, respectively.
Consider `O=C1NC(=O)[C@@H](c2cn3c4c(cccc24)CCC3)[C@@H]1c1ccc(OCc2ccccc2)cc1` (racemic) [Example 71, (±)-Trans-3-[4-(benzyloxy)phenyl]-4-(5,6-dihydro-4H-pyrrolo[3,2,1-ij]quinolin-1-yl)pyrrolidine-2,5-dione], for which the 50% inhibitory concentration (IC50) in the assay with MDA-MB-231 was 97.5 µM; in the assay with HT29 (setting [1]), 48.7 µM.
The matching figures for `O=C1NC(=O)[C@@H](c2cn3c4c(cccc24)CCC3)[C@@H]1c1ccc(Br)cc1` (racemic) [Example 42, (±)-Trans-3-(5,6-dihydro-4H-pyrrolo[3,2,1-ij]quinolin-1yl)-4-(4-bromophenyl)pyrrolidine-2,5-dione]: 49.6 µM and 44.1 µM.
Consider `O=C(OCN1C(=O)[C@@H](c2c[nH]c3ccccc23)[C@H](c2cn3c4c(cccc24)CCC3)C1=O)c1ccncc1` (racemic) [Example 60, (±)-trans-Isonicotinic acid-3-(5,6-dihydro-4H-pyrrolo[3,2,1-ij]quinolin-1-yl)-4-(1H-indol-3-yl)-2,5-dioxo-pyrrolidin-1-ylmethyl ester], for which the figures for the IC50 with MDA-MB-231 and in the assay on HT29 (setting [1]) were 3.55 µM and 3.59 µM, respectively.
The matching figures for `O=C1NC(=O)C(c2cn3c4c(cccc24)CCC3)=C1c1cccnc1` [Example 23, 3-(5,6-Dihydro-4H-pyrrolo[3,2,1-ij]quinolin-1-yl)-4-pyridine-3-yl-pyrrole-2,5-dione]: 28.7 µM and 76.8 µM.
In the case of `O=C1NC(=O)[C@@H](c2cn3c4c(cccc24)CCC3)[C@@H]1c1ccccc1` (racemic) [Example 49, (±)-Trans-3-(5,6-dihydro-4H-pyrrolo[3,2,1-ij]quinolin-1yl)-4-phenyl-pyrrolidine-2,5-dione], the IC50 in the assay with HT29 (setting [1]) was 14.6 µM.
Take `Cc1cccc(-c2ccc3[nH]cc([C@@H]4C(=O)NC(=O)[C@H]4c4cn5c6c(cccc46)CCC5)c3c2)c1` (racemic) [Example 39, (±)-Trans-3-(5,6-dihydro-4H-pyrrolo[3,2,1-ij]quinolin-1yl)-4-(5-(3-methylphenyl)-1H-indol-3-yl)pyrrolidine-2,5-dione]: in the assay with HT29 (setting [1]), the IC50 stood at 10.5 µM.
Turning to “(±)-Trans-3-(5,6-dihydro-4H-pyrrolo[3,2,1-ij]quinolin-1-yl)-4-(4-fluorophenyl)pyrrolidine-2,5-dione [Example 70]”, the IC50 with HT29 (72 hours with compound) worked out at 26.2 µM.
For `O=C1NC(=O)[C@@H](c2cn3c4c(cccc24)CCC3)[C@@H]1c1ccc(F)cc1Cl` (racemic) [Example 40, (±)-Trans-3-(5,6-dihydro-4H-pyrrolo[3,2,1-ij]quinolin-1yl)-4-(2-chloro-4-fluorophenyl)pyrrolidine-2,5-dione], the IC50 in the assay with HT29 (setting [1]) was 10.5 µM.
`O=C1NC(=O)C(c2cn3c4c(cccc24)CCC3)=C1c1ccc(F)cc1` [Example 67, 3-(5,6-dihydro-4H-pyrrolo[3,2,1-ij]quinolin-1-yl)-4-(4-fluorophenyl)-1H-pyrrole-2,5-dione]: the concentration for half-maximal inhibition (IC50) in the assay with MDA-MB-231 came to 57 µM.
